Reference: patent US20240327415A1, “Multicomponent Complexes, Including Salts, Crystalline Forms, and Hydrates and Solvates of ENT1 Inhibitors” (iTeos Belgium SA, priority 2023, published 2024)
Values belong to the molecule of their own block, whether it stands above or below them.

How the values were obtained:
Type in all cases: physicochemical
[1] = Variable Temperature X-Ray Powder Diffraction (VT-XRPD); set-up: key: Crystalline Form 3 di(hydrogen sulfate); Crystalline Form 9 di(hydrogen sulfate); Melt/Amorphous
Protocol: (§1) In the examples below, VT-XRPD analysis was carried out on a Philips X'Pert Pro Multipurpose diffractometer equipped with a temperature chamber. The samples were scanned between 4 and 36° 2θ using Cu K radiation (α1 λ=1.54060 Å; α2=1.54443 Å; β=1.39225 Å; α1: α2 ratio=0.5; most, if not all, B radiation is removed from the beam using an X-ray mirror) running in Bragg-Brentano geometry (step size 0.008° 2θ) using 40 kV/40 mA generator settings. Measurements were carried out from ambient temperature to an upper limit of 250° C., with a final measurement taken after cooling.
as §1, with “VT-XRPD” for “In the examples below, VT-XRPD”, “Å; β2=1.39225” for “Å; β=1.39225”, “Å; α1:α2” for “Å; α1: α2”, “all, β” for “all, B”

[2] = hydration mapping studies (slurries at different water activities, Example 17)
Protocol: Example 17—Hydration Mapping Studies-Crystalline Form 2 Compound 1 di(hydrogen sulfate) trihydrate, Crystalline Form 3 Compound 1 di(hydrogen sulfate), and Blend: The effects of different water activities on crystalline Form 2 Compound 1 di(hydrogen sulfate) trihydrate, crystalline Form 3 Compound 1 di(hydrogen sulfate) and a blend of the two were investigated. The “blend” was prepared by mixing crystalline Form 2 Compound 1 di(hydrogen sulfate) trihydrate and crystalline Form 3 Compound 1 di(hydrogen sulfate) in a 1:1 ratio. To the vials containing the required solid material, the appropriate solvent system was added to form slurries. The slurry samples were stirred at the required temperatures during and after the solvent addition. Where dissolution was observed post-solvent addition, additional solid was added to re-saturate the sample. After stirring at the required temperature for 48 hours, the residual solids left in the vials were analyzed by XRPD to assess the solid forms. The analyzed samples were then dried on the XRPD plate under reduced pressure at 40° C. for 24 hr. The dried samples were analyzed by XRPD.

[3] = Variable Humidity X-Ray Powder Diffraction (VH-XRPD)
Protocol: as §1, with “VH-XRPD” for “VT-XRPD”, “humidity” for “temperature”, “(α1λ=1.54060” for “(α1 λ=1.54060”, “2-90% RH,” for “ambient temperature to an upper limit of 250° C.,”, “at 40% RH.” for “after cooling.”
as §1, with “VH-XRPD analysis” for “In the examples below, VT-XRPD analysis”, “a humidity” for “a temperature”, “Å; α1:α2” for “Å; α1: α2”, “all, β” for “all, B”, “from 6-90% relative humidity (RH),” for “from ambient temperature to an upper limit of 250° C.,”, “taken at 40% RH.” for “taken after cooling.”

[4] = pH solubility studies in buffers and biorelevant media (Example 16); set-up: key: A: amorphous; Crystalline Form 10 mono(hydrogen sulfate); conditions: pH 6.8 (Phosphate), 24 h
Protocol: Example 16—pH Solubility Studies—(1) Crystalline Form 2 Compound 1 di(hydrogen sulfate) trihydrate, (2) Crystalline Form 3 Compound 1 di(hydrogen sulfate), and (3) Crystalline Form 4 Compound 1 mono(hydrogen sulfate): pH solubility studies were carried out on the prepared crystalline Form 2 Compound 1 di(hydrogen sulfate) trihydrate, crystalline Form 3 Compound 1 di(hydrogen sulfate) and crystalline Form 4 Compound 1 mono(hydrogen sulfate) in the following media: (1) HCl/KCl, pH 1.2; (2) Acetate, pH 4.5; (3) Phosphate, pH 6.8; (4) FaSSIF; (5) FeSSIF; and (6) FaSSGF. Slurries of the hydrogen sulfate forms were prepared in the appropriate medium and stirred at 25° C. For the experiments in the buffer media, the pH of the slurry samples was measured and adjusted as required after 1 hour and 23 hours of the slurrying. Additional solid was added where dissolution was observed post-adjustment. The pH of the samples in the biorelevant media was measured at the 23 hour timepoint. No pH adjustment was made for the biorelevant media. After a total of 24 hours of slurrying, the mother liquors were extracted via centrifugation, and the concentrations and solution purity were determined by HPLC. The residual solids were isolated and analyzed by XRPD and are shown in FIG. 77, FIG. 78, and FIG. 79. The assessment was repeated for some of the samples, where required.

[5] = second Heating, 150° C., hold 30 min
[6] = second Heating, 160° C., hold 30 min

VT-XRPD Results [1, 5]: Melt
VT-XRPD Results [1, 6]: Melt
VH-XRPD: Conv. To Form 5 at [3]: 5 at 6% RH
VH-XRPD: input form retained at [3]: at 10-80% RH
VH-XRPD Results ([3]; Desorption, 6% RH, hold 60 min): 5, PC
SMILES: CCCN1CCNCCCNC(=O)c2cc(OC)c(OC)c(c2)OCCC[C@@H](OC(=O)c2cc(OC)c(OC)c(OC)c2)CC1
solid form by XRPD after slurrying ([2]; acetonitrile:water (aw=0.1) at 50° C., 48 hours): conversion to crystalline Form 6 Compound 1 di(hydrogen sulfate)
solid form by XRPD after slurrying ([2]; the rest of the samples, 48 hours): consistent with crystalline Form 2 Compound 1 di(hydrogen sulfate) trihydrate

SMILES: COc1cc(C(=O)O[C@@H]2CCCOc3cc(cc(OC)c3OC)C(=O)NCCCN3CCCN(CC2)CC3)cc(OC)c1OC.O=S(=O)(O)O
XRPD of residual solids ([4]; 25° C.): A

SMILES: COc1cc(C(=O)O[C@@H]2CCCOc3cc(cc(OC)c3OC)C(=O)NCCCN3CCCN(CC2)CC3)cc(OC)c1OC.O=S(=O)(O)O.O=S(=O)(O)O [crystalline Form 3 Compound 1 di(hydrogen sulfate)]
VT-XRPD Results ([1]; Cooling, 30° C., hold 10 min): 9
VT-XRPD Results ([1]; Heating, 70° C., hold 30 min): 9
VT-XRPD Results ([1]; Heating, 90° C., hold 30 min): 9
VT-XRPD Results ([1]; Heating, 105° C., hold 30 min): 9
VT-XRPD Results ([1]; second Heating, 120° C., hold 30 min): 9
VT-XRPD Results ([1]; second Heating, 130° C., hold 30 min): 9
VT-XRPD Results ([1]; second Heating, 140° C., hold 30 min): 9
VT-XRPD Results [1, 5]: 9
VT-XRPD Results [1, 6]: 9 and Melt
solid form by XRPD after slurrying ([2]; solvent systems with aw=0.1, 48 hours): retained
solid form by XRPD after slurrying ([2]; solvent systems with aw=0.9, 48 hours): Conversion to crystalline Form 2 Compound 1 di(hydrogen sulfate) trihydrate
XRPD of residual solids ([4]; attempt 1, 25° C.): A
XRPD of residual solids ([4]; attempt 2, 25° C.): A
VH-XRPD: Conv. To Form 6→Form 2 at [3]: Form 2 at ≥70% RH
VH-XRPD: input form retained at [3]: at 10-60% RH
relative humidity range in which peaks of crystalline Form 6 Compound 1 di(hydrogen sulfate) are observed in addition [3]: 70-80 % RH
relative humidity range in which the form is retained (VH-XRPD) [3]: 2-60 % RH
relative humidity at which conversion to crystalline Form 2 Compound 1 di(hydrogen sulfate) trihydrate is observed ([3]; Form 3: after extended exposure): ≥ 80 % RH
